Laboratory results: article PMC7509492, “To What Extent Do Fluorophores Bias the Biological Activity of Peptides? A Practical Approach Using Membrane-Active Peptides as Models” (Frontiers in Bioengineering and Biotechnology, 2020)
Where two headings read alike, the source gives them in different places. Ends that are not written are not given here. Peptide text beside a SMILES is read from it. * marks the point of attachment. RhodamineB = CCN(CC)c1ccc2c(-c3ccccc3C(=O)*)c3ccc(=[N+](CC)CC)cc-3oc2c1; X1 = CC[N+]1=C(C=CC=C2N(CCCCCC(=O)*)c3ccccc3C2(C)C)C(C)(C)c2ccccc21; 5FAM = O=C1OC2(c3ccc(O)cc3Oc3cc(O)ccc32)c2ccc(C(=O)*)cc21

Tests used:
[1] = tested on: HBEC-5i cells (in vitro BBB model); assay: In vitro BBB translocation across HBEC-5i transwell monolayer; type: in vitro ADME, human; details: HBEC-5i monolayer on PET transwell 1.0 μm pores, apical to basolateral, 10 μM, 24 h, DMEM:F12 without phenol red, mean ± SD, triplicates of three independent experiments
Excerpt: HBEC-5i cells were allowed to grow until confluence in a gelatin-coated T-flask. Then, cells were carefully harvested with trypsin-EDTA (Gibco/Thermo Fisher, United States) and seeded 8,000 cells/well to 0.1% gelatin solution coated tissue culture inserts [transparent polyester (PET) membrane with 1.0 μm pores] for 24-well plates (BD Falcon, United States). During 8 days, the medium was changed every 2 days. After 8 days, cells were washed two times with 1× PBS and once with DMEM:F12 medium without phenol red (Gibco/Thermo Fisher, United States). Then, peptides diluted in DMEM:F12 medium without phenol red to a final concentration of 10 μM were added to the apical side of the in vitro BBB model (Figure 1). Experiments were performed on different days using independently grown cell cultures.
FIGURE 1 Scheme of an in vitro BBB transwell membrane system. Human brain endothelial cells (HBEC-5i) are cultured as monolayer on the apical side of a polyester (PET) transwell insert (1.0 μm pore size). Then, 10 μM of peptides are added to the apical side, and the translocation measured as the amount detected on the basolateral side.
The translocation of peptides labeled with different fluorophores was determined by fluorescence emission. After 24 h incubation, samples from the apical and basolateral side were collected and analyzed. Fluorescence was measured using the infinite F200 TECAN plate reader. The percentage (%) of translocation was calculated using the following equation:
(3) Translocation(%)=(Fi-Fcells/Fpeptide-FMedium)×100
Fi is the fluorescence intensity recovered, Fcells is the fluorescence intensity recovered from cells without peptide incubation, Fpeptide is the fluorescence intensity of total peptide initially added to the transwell apical side, and FMedium is the fluorescence intensity of the medium.
The translocation of unlabeled peptides was determined by the calculation of the respective area under the curve (AUC) in the reversed phase HPLC chromatograms. After 24 h incubation, samples from the apical and basolateral side were collected and analyzed by HPLC on a PerkinElmer Series 200 pump coupled to a PerkinElmer Series 200 UV/Vis Detector on a Luca C18 column (4.6 mm × 50 mm, 3 μm, Phenomenex, United States), eluting with linear gradients of HCOOH/MeCN (0.1%, v/v) into HCOOH/H2O (0.1%, v/v) over 15 min at 1 mL/min. UV detection was λ = 220 nm. The percentage (%) of translocation was calculated using the following equation:
(4) Translocation(%)=(AUCi/AUCpeptide)×100
AUCi is the AUC of peptide recovered and AUCpeptide is the AUC of total peptide initially added to the transwell apical side.

human RBCs [2] = tested on: human RBCs
Method: (§6) Fresh human blood was collected in EDTA tubes and centrifuged at 1,000 × g for 10 min at 4°C. The supernatant was discharged, and the pellet containing RBCs was washed three times with 1× PBS (137 mM NaCl, 2.7 mM KCl, 10 mM Na2HPO4, and 1.8 mM KH2PO4, pH 7.4) and resuspended in 1× PBS to obtain a 2.0% (v/v) suspension. Then, RBCs were added to centrifuge tubes containing two-fold serially diluted peptides to a final concentration ranging from 0.01 to 100 μM. The suspension was incubated for 24 h at 37°C with gentle stirring. After that, samples were centrifuged for 2 min at 1,000 × g. Supernatants were transferred to 96-well plates, and the hemoglobin released measured by absorbance at 570 nm in an Infinite F200 TECAN plate reader. 1× PBS with no peptides and Triton X-100 at 1 and 4% (v/v) were used as negative and positive controls, respectively. Hemolytic activity (%) was determined using the following equation:
(§7) (2) Hemolyticactivity(%)=AbsPT-AbsNC/AbsPC-AbsNC
(§8) where, AbsPT is the absorbance of treated samples, AbsNC is the absorbance from negative control, and AbsPC absorbance from positive control.
(§9) HC50 values were determined using the GraphPad Prism 7.0 software using a log(inhibitor) vs. normalized response. Experiments were performed on different days using independent blood donors.
(§10) (range from 0.01 to 100 μM). The percentage of hemolysis was determined by the absorbance of hemoglobin released into the supernatant. Melittin was included as a control peptide with hemolytic properties. The values were obtained from triplicates of three independent experiments. Error bars, S.D.

HBEC-5i cells = assay: CellTiter-Blue cell viability assay, HBEC-5i; type: cell-based, human; details: peptide 0.01-100 μM, mean ± SD, triplicates of three independent experiments; for Cytotoxicity HBEC-5i cells IC10: Table 1, concentration causing 10% cell death; for Cytotoxicity HBEC-5i cells IC10 / Cytotoxicity HBEC-5i cells IC90: 24 h; for Cytotoxicity HBEC-5i cells IC90: Table 1, concentration causing 90% cell death; for IC50: Table 1, 24 h, read-out: Cytotoxicity HBEC-5i cells IC50
Method: (§1) Peptides cytotoxicity against both HBEC-5i and MDA-MB-231 cells was determined using CellTiter-Blue® Cell Viability Assay, according to the manufacturer’s instructions. The assay is based on the ability of viable cells to reduce resazurin into resorufin, a highly fluorescent metabolite. […] Therefore, using this methodology is possible to distinguish between metabolic and non-metabolic cells and indirectly determine the cytotoxicity of peptides. Briefly, HBEC-5i and MDA-MB-231 cells were carefully detached from T-flasks, as described previously, and seeded 15,000/100 and 10,000/100 μL, respectively, in 96-well plates (Corning, United States) and incubated for 24 h. After medium removal, cells were washed two times with 1× PBS and 100 μL of previously diluted peptides (range between 0.01 and 100 μM) in either DMEM or DMEM:F12 medium were added to MDA-MB-231 or HBEC-5i cells, respectively. After 24 h incubation, cells were washed two times with 1× PBS, and 20 μL of CellTiter-Blue® Reagent (diluted in 100 μL of medium) was added to each well and incubated for 3 h in a humidified atmosphere of 5% CO2 at 37°C. The fluorescence intensity was measured at λ with an excitation of 560 nm and maximum emission at 590 nm using the infinite F200 TECAN plate reader. Medium and 1% Triton X-100-containing medium were used as positive controls (100% cell viability) and negative controls (0% cell viability), respectively. Cell viability (%) was determined using the following equation:
(§2) (7) CellViability=FP-FNC/FPC-FNC×100
(§3) Fp is the fluorescence intensity of peptide-treated cells, FNC is the fluorescence intensity for negative controls, and FPC is the fluorescence intensity for positive controls.
(§4) Experiments were performed on different days using independently grown cell cultures.
(§5) FIGURE 4 In vitro cytotoxicity unlabeled- and labeled-peptides. (A,B) Cytotoxicity against HBEC-5i cells. (C,D) Cytotoxicity against MDA-MB-231 cells. 1.5 × 10^4 and 1.0 × 10^4 cells of HBEC-5i and MDA-MB-231 cells, respectively, were incubated with various concentrations of peptides (range from 0.01 to 100 μM). The percentage of viability was determined using CellTiter® Blue reagent assay. […] Error bars, S.D.

[3] = CellTiter-Blue cell viability assay, HBEC-5i; type: cell-based, human; details: human, HBEC-5i cells, Table 1, peptide 0.01-100 μM, mean ± SD, triplicates of three independent experiments, read-out: Cytotoxicity HBEC-5i cells IC50
Method: as §1, §2, §3, §4, §5

human RBCs [4] = assay: Hemolytic activity on human red blood cells; details: 37°C; for Hemolytic activity HC10 / Hemolytic activity HC50 / Hemolytic activity HC90: Table 1, human RBCs in 1x PBS pH 7.4, 24 h, peptide 0.01-100 μM, mean ± SD, triplicates of three independent experiments; for Hemolytic activity HC10: concentration causing 10% hemolysis, hemoglobin absorbance 570 nm; for Hemolytic activity HC50: concentration causing 50% hemolysis; for Hemolytic activity HC50 / Hemolytic activity HC90: absorbance 570 nm; for Hemolytic activity HC90: concentration causing 90% hemolysis
Method: as §6, §7, §8, §9, §10

[5] = labeled peptide, quantified by fluorescence emission
[6] = unlabeled peptide, quantified by HPLC (AUC, UV 220 nm)

Row | Compound | Translocation (%) [1, 5] | Hemolytic activity HC10 (human RBCs [2]; pH 7.4) | Hemolytic activity HC50 (human RBCs [2]; pH 7.4) | Hemolytic activity HC90 (human RBCs [2]; pH 7.4) | Cytotoxicity HBEC-5i cells IC10 (HBEC-5i cells) | CC50 at 24 h [3] | Hemolytic activity HC10 (human RBCs [2]) | Hemolytic activity HC50 (human RBCs [2]) | Hemolytic activity HC90 (human RBCs [2]) | Cytotoxicity HBEC-5i cells IC90 (HBEC-5i cells) | Hemolytic activity HC10 (human RBCs [4]) | Hemolytic activity HC50 (human RBCs [4]) | Hemolytic activity HC90 (human RBCs [4]) | Translocation (%) [1, 6] | Hemolysis of RBCs, in words (human RBCs [4]; human RBCs, up to 100 μM, 24 h) | IC50 (HBEC-5i cells)
1 | CC[C@H](C)[C@H](NC(=O)CNC(=O)[C@H](C)NC(=O)c1ccc2c(c1)C(=O)OC21c2ccc(O)cc2Oc2cc(O)ccc21)C(=O)N[C@@H](CC(C)C)C(=O)N[C@@H](CCCCN)C(=O)N[C@@H](CCCNC(=N)N)C(=O)N[C@@H](Cc1c[nH]c2ccccc12)C(N)=O [CF-PepH3] (5FAM-AGILKRW-NH2) | 57.09 ± 2.43% | >200 µM | >200 µM | >200 µM | >200 µM | > 200 µM |  |  |  |  |  |  |  |  |  | 
2 | C[C@@H](O)[C@H](NC(=O)CNC(=O)[C@H](CO)NC(=O)c1ccc2c(c1)C(=O)OC21c2ccc(O)cc2Oc2cc(O)ccc21)C(=O)N[C@@H](CCC(N)=O)C(=O)N[C@@H](CCC(=O)O)C(=O)N[C@@H](CCC(=O)O)C(=O)N[C@@H](Cc1ccc(O)cc1)C(N)=O [CF-PepNeg] (5FAM-SGTQEEY-NH2) | 56.01 ± 3.49% |  |  |  | >200 µM | > 200 µM |  |  |  |  |  |  |  |  |  | 
3 | CC[C@H](C)[C@H](NC(=O)CNC(=O)[C@H](C)NC(=O)CCCCCN1C(=CC=CC2=[N+](CC)c3ccccc3C2(C)C)C(C)(C)c2ccccc21)C(=O)N[C@@H](CC(C)C)C(=O)N[C@@H](CCCCN)C(=O)N[C@@H](CCCNC(=N)N)C(=O)N[C@@H](Cc1c[nH]c2ccccc12)C(N)=O [Q570-PepH3] (X1-AGILKRW-NH2) | 59.60 ± 2.64% | >200 µM | >200 µM | >200 µM | >200 µM | > 200 µM | > 200 µM | > 200 µM | > 200 µM |  |  |  |  |  |  | 
4 | CC[N+]1=C(C=CC=C2N(CCCCCC(=O)N[C@@H](CO)C(=O)NCC(=O)N[C@H](C(=O)N[C@@H](CCC(N)=O)C(=O)N[C@@H](CCC(=O)O)C(=O)N[C@@H](CCC(=O)O)C(=O)N[C@@H](Cc3ccc(O)cc3)C(N)=O)[C@@H](C)O)c3ccccc3C2(C)C)C(C)(C)c2ccccc21 [Q570-PepNeg] (X1-SGTQEEY-NH2) | 48.89 ± 3.05% |  |  |  | >200 µM | > 200 µM |  |  |  |  |  |  |  |  |  | 
5 | CC[C@H](C)[C@H](NC(=O)CNC(=O)[C@H](C)NC(=O)c1ccccc1-c1c2ccc(=[N+](CC)CC)cc-2oc2cc(N(CC)CC)ccc12)C(=O)N[C@@H](CC(C)C)C(=O)N[C@@H](CCCCN)C(=O)N[C@@H](CCCNC(=N)N)C(=O)N[C@@H](Cc1c[nH]c2ccccc12)C(N)=O [RhB-PepH3] (RhodamineB-AGILKRW-NH2) | 51.57 ± 4.81% | 9.208 µM | 128.3 µM | >200 µM | >200 µM | > 200 µM | 9.208 ± 1.564 µM | 128.3 ± 6.596 µM | > 200 µM | >200 µM |  |  |  |  |  | 
6 | CCN(CC)c1ccc2c(-c3ccccc3C(=O)N[C@@H](CO)C(=O)NCC(=O)N[C@H](C(=O)N[C@@H](CCC(N)=O)C(=O)N[C@@H](CCC(=O)O)C(=O)N[C@@H](CCC(=O)O)C(=O)N[C@@H](Cc3ccc(O)cc3)C(N)=O)[C@@H](C)O)c3ccc(=[N+](CC)CC)cc-3oc2c1 [RhB-PepNeg] (RhodamineB-SGTQEEY-NH2) | 51.57 ± 2.43% |  |  |  | >200 µM | > 200 µM |  |  |  | >200 µM | >200 µM | >200 µM | >200 µM |  |  | 
7 | AGILKRW-NH2 [PepH3] |  |  |  |  | >200 µM | > 200 µM |  |  |  | >200 µM | >200 µM | >200 µM | >200 µM | 55.15 ± 3.16% | non-hemolytic | 
8 | SGTQEEY-NH2 [PepNeg] |  | >200 µM | >200 µM | >200 µM | >200 µM | > 200 µM |  |  |  | >200 µM |  |  |  | 50.16 ± 3.13% |  | 
9 | TF3-AGILKRW-amide [TF3-PepH3, PepH3 labeled at the N-terminus with tide fluor 3] | 56.74 ± 3.89% |  |  |  | 184.9 ± 6.57 µM |  |  |  |  | >200 µM | >200 µM | >200 µM | >200 µM |  |  | > 200 µM
10 | TF3-SGTQEEY-amide [TF3-PepNeg, PepNeg labeled at the N-terminus with tide fluor 3] | 53.69 ± 2.94% |  |  |  | >200 µM |  |  |  |  | >200 µM | >200 µM | >200 µM | >200 µM |  |  | > 200 µM
